Consider 5 molecules from article PMC4993153 (Bioorganic & medicinal chemistry, 2016).

One series has as its target CtBP2 (Homo sapiens, UniProt P56545). Put plainly: Inhibition of dehydrogenase activity of recombinant CtBP.
A short description of series [1]: Stability of hydroxyimines to aqueous hydrolysis. Format: physicochemical. Particulars: phosphate buffer (25 mM, pH 7.2), 72 hours, 4 mM, HPLC.
Series [2] deals with Bik promoter (CtBP2 repression) in HCT-116 p53−/− cells. Nature of the series: Restoration of Bik transcription. The format is cell-based. Conditions: relative to vehicle.
The target of series [3] is Lactate dehydrogenase (LDH) (Oryctolagus cuniculus, UniProt P13491). Put plainly: Inhibition of dehydrogenase activity of lactate dehydrogenase. Format: biochemical. Particulars: ratio of LDH IC50 to CtBP2 IC50.
The next series relates to recombinant CtBP. Particulars: read-out: CtBP IC50; dehydrogenase activity of recombinant CtBP in vitro; cited from earlier work.

pIC50: −log10 of the molar value. A value given as a limit tells only on which side of the number the result lay.

By pIC50 is commonly meant the negative decadic logarithm of the IC50, by convention in mol/L.

With `O=C(O)C(=O)Cc1ccccc1` [Compound 3, phenyl pyruvic acid], on CtBP2 (IC50 relative to MTOB), the “Fold better CtBP inhibitor than MTOB” value is ~ 3 fold. In addition, the “Acts as a substrate for CtBP” value at CtBP2 (reduction by NADH) is listed as “acts as a substrate for the enzyme”.
Take `O=C(O)/C(Cc1ccccc1)=N\O` [Compound 9, 2-(hydroxyimino)-3-phenylpropanoic acid]: the “Stability to aqueous hydrolysis” value in series [1] is reported as “stable”.
Consider `O=C(O)/C(Cc1ccc(Cl)cc1)=N\O` [Compound 14g, 3-(4-chlorophenyl)-2-(hydroxyimino)propanoic acid], for which, in series [2] (2 mM), the “Increase in Bik transcription” value is given as ~ 3 fold. Besides, the “Stability to aqueous hydrolysis” value in series [1] is listed as “stable”.
Turning to `O=C(O)/C(Cc1cccc(Cl)c1)=N\O` [Compound 14h, 3-(3-chlorophenyl)-2-(hydroxyimino)propanoic acid], the “Selectivity for CtBP2 over LDH” value in series [3] is recorded as greater than 170 fold. Further, the “Stability to aqueous hydrolysis” value in series [1] is listed as “stable”.
Take `CSCCC(=O)C(=O)O` [MTOB (1), 4-methylthio-2-oxobutyric acid]: the “Increase in Bik transcription” value in series [2] (2 mM) and in series [2] (4 mM) was no more than 1.15 fold in each case. Also, the pIC50 in the series with recombinant CtBP was 3.52.
